# Laboratory results from US9244060B2, “Site localization and methods for monitoring treatment of disturbed blood vessels” (Warsaw Orthopedic, Inc., priority 2009, dated 2016).
# Conditions: rat, in vivo
# Description: Female Sprague-Dawley rats (Harlan Sprague-Dawley, Indianapolis, Ind.), weighing 250-300 grams each were given free access to food and water before the experiment. The animals were anesthetized with ketamine (80 mg/kg) and xylazine (10 mg/kg). Brain temperatures were monitored using a rectal thermometer. The animals' body temperature was maintained at 37° C. by using a water-jacketed heating pad. Brain temperature was monitored for 1 hour prior to injury to 6 hours following injury and was recorded at 30-minute intervals.
# Young adult female Sprague-Dawley rats received a spinal cord contusion using the Precision Systems and Instrumentation, LLC (Fairfax Station, Va.) pneumatic impactor. Prior to surgery, rats were assigned to different treatment groups based on a randomized block design so that on any given surgery day all treatment groups were included. The rats were anesthetized with ketamine (80 mg/.kg) and xylazine (10 mg/kg) before laminectomy was performed at the 10th thoracic vertebra (T10). The vertebral column was stabilized with angled clamps on the upper thoracic (T8) and lumber (T11) levels and the impactor with a tip diameter of 2 mm was delivered at approximately 150 kdynes onto the exposed, intact dura overlying the dorsal spinal cord. The impactor was immediately removed, the wound irrigated with saline and the muscle and skin openings sutured together.
# Two hours following injury, 0.8% magnesium in 3350 formulations was administered by intravenous infusion of 5 mL/kg over a 30-min period. For repeated infusions, an interval of 6 hours was used between infusions and the right jugular vein was cannulated with PE 50 tubing. The cannula was secured through the back of the neck and capped between infusion periods. Animals were re-anesthetized for re-administration of compounds. The contents of the infusion vials were blinded to the investigators performing both the infusions and the analyses.
# At various time points after infusion, cerebrospinal fluid and/or blood samples and/or spinal cord tissue with and without the injury site were collected. […]
# Serum and CSF samples were analyzed for magnesium concentrations by the Clinical Pathology Department at WIL Research Laboratories, LLC, 1407 George Road, Ashland, Ohio 44805. […] The formation of the chromophore (and consequently a reduction of the xylidyl blue) is proportional to the concentration of Mg^2+, measured by the instrument as a decrease in the xylidyl blue absorbance (600 nm). […]
# Tissue and plasma concentrations of PEG-3350 in rat plasma were measured using a validated high performance liquid chromatograpy tandem mass spectrometry (HPLC/MS/MS) method in positive electrospray ionization mode. […] The samples were analyzed with an HPLC/MS/MS assay using a Thermo Hypersil ODS column. […]
time for PEG plasma level to decrease to baseline level post-infusion [min],time at which Cmax of PEG plasma level was observed (iv),time for Magnesium serum level to decrease to baseline level post-infusion [min],time at which Cmax of Magnesium serum level was observed (iv),Compound
30 to 60,at the end of the infusion,,,polyethylene glycol [PEG]
,,30 to 60,at the end of the infusion,"[Mg+2] [Magnesium, magnesium]"
